{"source": "paper PMC8952799", "about": "“Two Male-Specific Antimicrobial Peptides SCY2 and Scyreprocin as Crucial Molecules Participated in the Sperm Acrosome Reaction of Mud Crab Scylla paramamosain” (International Journal of Molecular Sciences, 2022)", "test_in_all_cases": "modified ELISA on progesterone-coated plate, Scatchard plot", "key": {"rScyreprocin": {"target": "T1, rScyreprocin (Scylla paramamosain, UniProt A0A7D0GB18)", "T1 construct": "recombinant His-tagged scyreprocin, purified", "T1 sequence (A0A7D0GB18 1-84)": "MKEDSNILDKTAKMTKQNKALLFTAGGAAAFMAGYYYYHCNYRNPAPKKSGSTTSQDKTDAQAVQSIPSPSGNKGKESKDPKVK", "type": "binding"}, "rSCY2": {"target": "T2, rSCY2 (Scylla paramamosain, UniProt A0AAW0UAN3)", "T2 construct": "gene SCY2; recombinant His-tagged SCY2, purified", "T2 sequence (A0AAW0UAN3 25-124 limits assumed)": "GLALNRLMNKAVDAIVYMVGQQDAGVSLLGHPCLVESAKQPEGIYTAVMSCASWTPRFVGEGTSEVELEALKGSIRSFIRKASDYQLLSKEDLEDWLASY", "type": "binding", "conditions": "protein 0-24 uM on plate coated with 3 ug progesterone; antibody detection; rSCY2 alone"}, "[1]": {"target": "T3, rScyreprocin/rSCY2 mixture", "T3 construct": "gene scyreprocin; complex not isolated, stoichiometry unknown", "type": "binding, Scylla paramamosain", "conditions": "protein mixture 0-24 uM on plate coated with 3 ug progesterone; antibody detection; both proteins present"}}, "data": [{"smiles": "CC(=O)[C@H]1CC[C@H]2[C@@H]3CCC4=CC(=O)CC[C@]4(C)[C@H]3CC[C@]12C", "note": "[progesterone]", "values": [{"measurement": "Kd", "setting": "rScyreprocin", "result": 259, "unit": "nM"}, {"measurement": "Kd", "setting": "rSCY2", "result": 143, "unit": "nM"}, {"measurement": "Kd", "setting": "[1]", "result": 72.2, "unit": "nM"}]}]}
